Usually IC50 stands for the concentration needed to halve the response being measured. A word on the GI50: it is the concentration that inhibits growth by half. The low end stands for greater sensitivity of the cells, the high end for lower sensitivity of the cells.

This is an account of results in ChEMBL document CHEMBL4251580, “Exploiting polypharmacology for improving therapeutic outcome of kinase inhibitors (KIs): An update of recent medicinal chemistry efforts” (Eur J Med Chem, 2018).

The target in assay [1] is Epidermal growth factor receptor (Homo sapiens, UniProt P00533). Description: Inhibition of C-terminal His-tagged and N-terminal GST tagged human EGFR (668 to 1210 residues) expressed in baculovirus infected Sf9 cells using KHKKLAEGSAYEEV substrate peptide and gamma-[32P]ATP.
Assay [2] can be described thus: Inhibition of NF-kappaB (unknown origin) expressed in human U937 cells by luciferase reporter gene assay. The assay is classed as cell-based. The note with it: U-937.
In the next assay the test system is MDA-MB-231. Description: Growth inhibition of human MDA-MB-231 cells incubated for 72 hrs by Cell-titer Glo luciferase-based assay. It is filed as functional. Conditions: MDA-MB-231, 72 h.

Sequence of Epidermal growth factor receptor (P00533 whole entry, the tested form may be a part): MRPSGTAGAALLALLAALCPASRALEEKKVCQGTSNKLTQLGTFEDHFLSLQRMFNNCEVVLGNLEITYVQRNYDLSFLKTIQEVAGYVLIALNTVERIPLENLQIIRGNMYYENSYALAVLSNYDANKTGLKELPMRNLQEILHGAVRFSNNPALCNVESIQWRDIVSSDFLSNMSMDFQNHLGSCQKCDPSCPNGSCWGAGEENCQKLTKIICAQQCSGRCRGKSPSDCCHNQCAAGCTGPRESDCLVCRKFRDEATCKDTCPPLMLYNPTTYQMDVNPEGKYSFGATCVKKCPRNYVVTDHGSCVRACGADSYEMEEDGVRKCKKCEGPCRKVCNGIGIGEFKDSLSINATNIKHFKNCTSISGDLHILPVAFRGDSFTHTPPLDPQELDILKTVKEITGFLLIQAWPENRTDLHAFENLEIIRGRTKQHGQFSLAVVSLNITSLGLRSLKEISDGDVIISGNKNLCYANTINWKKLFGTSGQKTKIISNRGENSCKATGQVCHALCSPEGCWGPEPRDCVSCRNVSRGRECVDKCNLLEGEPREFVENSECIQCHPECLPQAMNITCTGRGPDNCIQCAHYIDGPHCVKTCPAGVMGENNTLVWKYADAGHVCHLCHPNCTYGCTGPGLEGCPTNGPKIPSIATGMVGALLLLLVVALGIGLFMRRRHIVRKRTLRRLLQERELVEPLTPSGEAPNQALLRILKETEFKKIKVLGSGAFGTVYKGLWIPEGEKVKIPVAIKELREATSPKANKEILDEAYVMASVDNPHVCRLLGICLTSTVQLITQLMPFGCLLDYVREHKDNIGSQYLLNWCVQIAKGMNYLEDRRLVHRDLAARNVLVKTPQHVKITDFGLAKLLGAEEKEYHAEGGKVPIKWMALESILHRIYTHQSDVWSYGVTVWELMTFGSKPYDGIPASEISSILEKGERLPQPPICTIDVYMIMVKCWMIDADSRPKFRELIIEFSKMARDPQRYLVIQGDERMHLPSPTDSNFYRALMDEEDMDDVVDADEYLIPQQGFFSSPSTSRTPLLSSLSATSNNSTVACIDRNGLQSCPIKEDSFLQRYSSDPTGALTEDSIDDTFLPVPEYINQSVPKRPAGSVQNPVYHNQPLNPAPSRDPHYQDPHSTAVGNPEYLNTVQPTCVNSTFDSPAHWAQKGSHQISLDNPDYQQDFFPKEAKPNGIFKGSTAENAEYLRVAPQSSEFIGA

Regarding `Fc1cc(F)cc(NC(=S)Nc2ccc3ncnc(Nc4cccc(Br)c4)c3c2)c1`, the IC50 in assay [1] was 60 nM; in assay [2] it was 300 nM. Moreover, in the assay on MDA-MB-231, the GI50 came out at 1100 nM.
